{"source": "patent US20220226349A1", "about": "“TOPICAL NEUROSTEROID FORMULATIONS” (Arizona Board of Regents on Behalf of the University of …, priority 2019, published 2022)", "key": {"[1]": {"test_system": "TR 146 (human buccal) cell line", "experiment": "In vitro cell viability (resazurin assay) after treatment of Allo, TR 146", "format": "cell-based", "conditions": "TR 146, Allo 0.001-10 μM, 72 h", "description": "(§1) Cell viability was evaluated in human skin (HaCaT)cell line by performing a resazurin assay after the treatment of Allo. Resazurin is a cell permeable redox indicator, and viable cells with active metabolism can reduce resazurin into resorufin, which is fluorescent (Riss et al., Cell Viability Assays, in Assay Guidance Manual, 2016). The HaCaT cells were grown in optimized Dubelco's Modified Eagle's medium (DMEM) (containing 2 mM of L-glutamine, 2 mM of sodium pyruvate, 4500 mg/L of glucose, and 1500 mg/L of sodium bicarbonate) supplemented with 10% fetal bovine serum (FBS). The TR 146 cells were grown in Ham's F12 medium supplemented with 10% FBS, 1% penicillin-streptomycin, and 0.2% L-Glutamine The RPMI 2650 cells were grown in Eagle's Minimum Essential medium (EMEM) supplemented with 10% FBS, 1% penicillin-streptomycin, and 0.2% amphotericin […]. Cells were plated in a 96-well plate at a density of 5,000 cells per each well (100 μl) and incubated at 37° C. and 5% CO2 for 48 h. Allo was prepared in cell culture media with the addition of 1% (v/v) ethanol to aid Allo solubility. The final concentration range of Allo treated to the cells was 0.001-10 μM. […] The cell viability was measured using Synergy H1 Multi-Mode Reader (BioTek Instruments Inc., Winooski, Vt.) at the excitation wavelength of 544 nm and emission wavelength of 590 nm."}, "[2]": {"test_system": "HaCaT (human skin) cell line", "experiment": "In vitro cell viability (resazurin assay) after treatment of Allo, HaCaT", "format": "cell-based", "conditions": "72 h", "description": "as §1"}, "[3]": {"test_system": "RPMI 2650 (human nasal) cell line", "experiment": "In vitro cell viability (resazurin assay) after treatment of Allo, RPMI 2650", "format": "cell-based", "conditions": "RPMI 2650, Allo 0.001-10 μM, 72 h", "description": "as §1"}, "[4]": {"experiment": "Saturated solubility of Allo in receptor media", "format": "physicochemical", "conditions": "aqueous with cosolvent or surfactant or cyclodextrin, thermodynamic from solid, 32° C., n=3, read-out: Solubility of Allo in receptor medium", "description": "To select a receptor medium placed in the receptor compartment of the Franz chamber, the saturated solubilities of Allo in various media were determined. PBS at pH 7.4 has been commonly used to mimic the physiological condition. […] An excessive amount of Allo was added to 1 ml of the following media: (1) 10% (w/v) 2-hydroxypropyl-β-cyclodextrin (HβCD), (2) 40% (v/v) isopropyl alcohol (IPA), (3) 30% (v/v) CREMOPHOR EL®, and (4) 20% (v/v) IPA and 25% (v/v) CREMOPHOR EL®. The solutions were kept under constant magnetic stirring at 600 rpm for 24 h and placed in an incubator at 32° C. After 24 h, the excessive amount of Allo was filtered through a 0.2 μm syringe membrane and the filtered solution was injected into the HPLC for analysis."}, "[5]": {"experiment": "Saturated solubility of Allo in oils", "format": "physicochemical", "conditions": "oil or lipid, thermodynamic from solid, room temperature, mean ± SD, n=3", "description": "The solubility of Allo was determined in CAPMUL® MCM EP/NF (monodiglyceride of medium chain fatty acids, commercially available from Abitec Corporation (Columbus, Ohio), CAS Number 91744-32-0, or 26402-22-2, and 26402-26-6), isopropyl myristate, and oleic acid, by adding an excess amount of Allo to 1 mL of each oil in a glass vial. The vial was rocked for 72 h at room temperature. The excessive amount of Allo was filtered through a syringe membrane filter (0.2 μm). The amount of Allo dissolved in each oil was determined using HPLC.\nAn HPLC analytical method was developed by employing the SHIMADZU LC2010A HT for in vitro and ex vivo evaluation of Allo from microemulsions (MEs). Chromatographic separation was achieved using a PHENOMENEX® KINETEX® Phenyl-hexyl 2.6 μm reverse-phase (150×4.6 mm) column. The mobile phase was a mixture of 0.1% acetic acid in water and methanol, 20:80 (v/v) and flowed at 0.4 ml/min for 15 min The injection volume was 10 μl and the UV detection wavelength was 206 nm. A standard curve was constructed at the concentration range of 7.8-1,000"}}, "note": "Where two headings read alike, the source gives them in different places."}
{"smiles": "CC(=O)[C@H]1CC[C@H]2[C@@H]3CC[C@H]4C[C@H](O)CC[C@]4(C)[C@H]3CC[C@]12C", "note": "[Allo, 3α-hydroxy-5α-pregnan-20-one]", "values": [{"measurement": "Viability percent range", "setting": "[1]", "result": "93.89-112.44%"}, {"measurement": "Viability percent range", "setting": "[2]; HaCaT, Allo 0.001-10 μM", "result": "84.16-102.70%"}, {"measurement": "Viability compared to the control group", "setting": "[2]; stated for the tested cell lines (HaCaT, TR 146, RPMI 2650), control without Allo", "result": "No significant decrease in viability"}, {"measurement": "Viability percent range", "setting": "[3]", "result": "107.32-113.60%"}, {"measurement": "solubility at 24 h", "setting": "[4]; PBS (pH 7.4) containing 10% (w/v) HβCD", "result": "3450 ± 30", "unit": "µg/mL"}, {"measurement": "solubility at 24 h", "setting": "[4]; PBS (pH 7.4) containing 20% (v/v) IPA and 25% (v/v) CREMOPHOR EL®", "result": "3350 ± 120", "unit": "µg/mL"}, {"measurement": "solubility at 24 h", "setting": "[4]; PBS (pH 7.4) containing 30% (v/v) CREMOPHOR EL®", "result": "1990 ± 170", "unit": "µg/mL"}, {"measurement": "solubility at 24 h", "setting": "[4]; PBS (pH 7.4) containing 40% (v/v) IPA", "result": "1130 ± 130", "unit": "µg/mL"}, {"measurement": "solubility at 72 h", "setting": "[5]; in CAPMUL® MCM", "result": "28.4 ± 1.92", "unit": "mg/mL"}, {"measurement": "solubility at 72 h", "setting": "[5]; in isopropyl myristate", "result": "8.88 ± 0.17", "unit": "mg/mL"}, {"measurement": "solubility at 72 h", "setting": "[5]; in oleic acid", "result": "17.8 ± 3.97", "unit": "mg/mL"}]}
